# Experiments:
# B6.sle1 mouse SLE model = details: literature (Hutcheson et al.); reduced anti histone, anti ssDNA, kidney lymphocytes and renal damage; cited from earlier work
# NZBxNZW F1 mice = details: literature; cited from earlier work
# [1] = tested on: NZBxNZW F1 mouse SLE model; assay: urine protein (proteinuria, Albustix strips) in NZBxNZW F1 mouse SLE model; type: in vivo
# Protocol: (§1) Compound 1 besylate was tested in the NZBxNZW Fl mouse SLE model. Treatment efficacy of Compound 1 besylate in this model was compared with cyclophosphamide, and a vehicle control. Principal end measures were autoantibodies against double stranded DNA (dsDNA) and protein in the urine.
# Urine analysis was initiated when the animals reached 13-14 weeks of age. Initially urine analysis was performed once in two weeks. When the animals reached 18-19 weeks of age, weekly urine analysis for proteinuria levels was performed using Albustix® Reagent strips for Urinalysis (Bayer, Inc). Results were scored on a 0-4 scale using the following criteria:
# When the mice reached 19 weeks of age, all animals were evaluated with respect to their proteinuria scores. Based on that evaluation, […] mice were selected and assigned to 6 groups of 10 mice each and one group of 5 mice. The mice were assigned such that the distributions of proteinuria scores among all groups were as uniform as possible.
# (§2) Treatment was administered when the mice reached ˜20 weeks of age as follows:
# (§3) Proteinuria: Urine was tested once every two weeks when the animals reached ˜13 weeks of age. Urine analysis was preformed midweek at approximately the same time of the day. Weekly urine analysis commenced when the animals reached the age of ˜18 weeks. Proteinuria levels were evaluated using Albustix urine strips. Serum was collected via collection of blood from tail bleeds when animals reached 13 weeks in age, then prior to initiating the treatment and thereafter twice a month.
# [2] = tested on: NZBxNZW F1 mouse SLE model; assay: anti-dsDNA autoantibody quantitation by ELISA in serum, NZBxNZW F1 mouse SLE model; type: in vivo
# Protocol: as §1
# Female NZBxNZW FI mice were housed in filter-top Nalgene cages, maintained on a 12-hour light/12-hour dark cycle with a room temperature of 70° F.+/−4° F. Mice were allowed to acclimate to the laboratory environment for approximately 5-7 days to ascertain their continued good health. Irradiated laboratory rodent chow and autoclaved water were supplied ad libitum.
# Eighty NZBxNZW F1 female mice ˜12 weeks in age were obtained from Jackson Laboratory and were acclimatized for one week. After the acclimatization period was complete, each mouse that was successfully acclimatized was ear tagged and body weight recorded.
# An initial bleed was performed prior to treatment initiation and serum prepared from the blood sampled. Serum samples were stored at −80° C. Following treatment initiation, blood was collected once every two weeks during the in-life phase for subsequent serum preparation.
# as §2, §3
# Results. Individual autoantibody development in NZBxNZW Fl mice over time is depicted in FIG. 1A. Serum samples were collected from vehicle treated mice at the times indicated and an anti-dsDNA quantitation by ELISA performed. During the course of measurement from 18 weeks of age to 36 weeks of age, six (6) out of ten (10) mice developed autoantibodies against dsDNA greater than 400 KU/ml during the course of disease development and eight out of ten developed dsDNA antibodies greater than 200 kU/ml.
structure (smiles),measurement,setting,value
C=CC(=O)N1CCC[C@@H](n2nc(-c3ccc(Oc4ccccc4)cc3)c3c(N)ncnc32)C1 [PCI 32765/Ibrutinib],efficacy in B6.sle1 mouse SLE model,B6.sle1 mouse SLE model,efficacious
N#CN1CCCC(n2nc(-c3ccc(Oc4ccc(F)cc4F)cc3)c(C(N)=O)c2N)C1 (centres unmarked) [PF-06250112],effect on lupus nephritis / SLE in NZBxNZW F1 mice,NZBxNZW F1 mice,efficacious
"O=P1(N(CCCl)CCCl)NCCCO1 (centres unmarked) [Cyclophophamide, Cyclophosphamide]",effect on lupus nephritis / SLE in NZBxNZW F1 mice,NZBxNZW F1 mice,inhibit lupus nephritis
"C=CC(=O)Nc1cccc(Nc2nc(Nc3ccc(OCCOC)cc3)ncc2F)c1 [Compound 1 besylate, N-(3-(5-fluoro-2-(4-(2-methoxyethoxy)phenylamino)pyrimidin-4-ylamino)phenyl)acrylamide besylate]",protein levels measured in the urine relative to vehicle (FIG. 2),[1]; 50 mg/kg BID PO for 12 weeks,reduced protein levels
same,protein levels measured in the urine relative to vehicle (FIG. 2),[1]; 100 mg/kg QD PO for 12 weeks,reduced protein levels
same,"urine protein, dose dependence",[1]; across dose groups,dose-associated trend of reduced urine protein
same,number of treated mice that developed dsDNA antibodies over 400 kU/ml,"[2]; 50 mg/kg BID PO for 12 weeks, vehicle: six (6) of ten (10)",2 of ten (10) treated mice
same,number of mice with nearly complete suppression of anti-dsDNA development,"[2]; 50 mg/kg BID PO, of ten treated mice",6 mice
same,anti-dsDNA autoantibody development (FIG. 1C),"[2]; 50 mg/kg BID PO, weeks 29 through 33",reduced anti-dsDNA autoantibody development
same,number of mice with blunted anti-dsDNA responses at the end of the study,"[2]; 50 mg/kg BID PO, weeks 35 and 36, of ten treated mice",2 mice
CN1CCN(c2ccc(Nc3cc(-c4cccc(-n5ccc6cc(C7CC7)cc(F)c6c5=O)c4CO)cn(C)c3=O)nc2)CC1 [RN486],effect on lupus nephritis / SLE in NZBxNZW F1 mice,NZBxNZW F1 mice,efficacious
